SMILES strings stand for the structures.

This assay deals with cultured mouse podocytes. Briefly: Actin cytoskeleton and focal adhesions in cultured podocytes (rhodamine-phalloidin, anti-paxillin). It is filed as cell-based. As to conditions: 10 min after addition. As to the method:
FIG. 19 is a photograph showing the effects of Bis-T-23 on the actin cytoskeleton in podocytes. Cells were stained using rhodamine-phalloidin for F-actin (left column) and anti-paxillin monoclonal antibody (centre column). The merged staining is shown on the right column.
To determine if the in vitro action of the dynamin ring stabilizers also occurs in cells, the effect of Bis-T-23 on the actin cytoskeleton in cultured mouse podocytes was tested (FIG. 19). […] Thus, the observed increase in stress fibers is unlikely due to inhibition of endocytosis.

In the case of `N#CC(=Cc1cc(O)c(O)c(O)c1)C(=O)NCCCNC(=O)C(C#N)=Cc1cc(O)c(O)c(O)c1` [Bis-T-23, 2-cyano-N-{3-[2-cyano-3-(3,4,5-trihydroxyphenyl)-acryloylamino]-propyl}-3-(3,4,5-trihydroxyphenyl)-acrylamide], the “stress fibers in podocytes” value (FIG. 19) was “dramatic increase in well-defined stress fibers”. In addition, the “number of focal adhesions (paxillin staining)” value (FIG. 19B) is on record as “dramatic increase in the number of focal adhesions”.
